Experimental data as given in US4279909A, “Antiallergic method” (Fujisawa Pharmaceutical Co., Ltd., priority 1980, dated 1981).
Where a name gives a salt, the structure may show the parent alone.

Legend:
[1] = test system: P.C.A. reaction; experiment: Passive cutaneous anaphylaxis (P.C.A.) in rats sensitized with homologous hyperimmune antiserum; type: in vivo; settings: iv, rat, intravenously 30 seconds before antigen, read-out: ED50 (inhibitory effect of P.C.A. reaction)
Experimental: (b) Rat hyperimmune antiserum against egg albumin
Male Sprague-Dawley JCL strain rats were injected in the four foot pads with 10 mg of egg albumin emulsified in 0.5 ml of saline and 0.5 ml of Freund's complete adjuvant in divided portions. Seven days later, the animals were injected intramuscularly at three sites on a shaved area of their backs with a total of 5 mg of egg albumin emulsified in 0.5 ml of saline and 0.5 ml of Freund's complete adjuvant. On days 28 to 30, the animals were injected intracutaneously at two sites on the back with 0.2 mg of egg albumin in 0.2 ml of saline. The antiserum was obtained 7 days after the last injection and stored at -20° C.
(3) Passive cutaneous anaphylaxis (P.C.A.) in rats sensitized with homologous hyperimmune antiserum
P.C.A. reaction was performed in male Sprague-Dawley JCL strain rats passively sensitized with homologous hyperimmune antiserum against egg albumin. That is, 0.1 ml of the antiserum was injected into the skin on the back of rats, and 4 hours later 1 ml of mixture of egg albumin 5 mg and Evans' blue 5 mg was injected intravenously. One hour later, the animals were killed and the skin was removed. Evans' blue was then extracted from the sensitized spot with 10 ml of 4:1 mixture of aceton and 2% solution of RBS-25. The quantity of Evans' blue was determined by colorimetry at 620 mμ. The drug was given intravenously 30 seconds before dosing with antigen.

[2] = test system: histamine; experiment: Antagonistic effect on histamine in vitro (isolated guinea-pig ileum); settings: histamine 1.0 × 10^-7 g/ml
Experimental: (5) Antagonistic effect on histamine in vitro
The ileum was connected to a strain gauge transducer and the contractions were recorded isometrically.

[3] = Acute toxicity in mouse; settings: in vivo, po; female mouse, orally, seven days
Experimental: (§1) (6) Acute toxicity in mouse and rat
(§2) Each ten male and female ICR-JCL strain mice and Sprague-Dawley-JCL strain rats were used for each dose.
(§3) Test compound was given to animals in a form of suspension in 0.5% methyl cellose orally. After administration, the incidence of the death was recorded for successive seven days. LD50 values were calculated by the method of Lichfield-Wilcoxon method.

[4] = Acute toxicity in rat; settings: in vivo, po; female rat, orally, seven days
Experimental: as §1, §2, §3

[5] = test system: anaphylactic bronchoconstriction; experiment: Anaphylactic bronchoconstriction in guinea-pigs sensitized with homologous antiserum; type: in vivo; settings: Cavia porcellus, iv; guinea-pig; intravenously 30 seconds before antigen
Experimental: (c) Guinea-pig antiserum against egg albumin
Five mg of egg albumin emulsified in 0.5 ml of physiological saline and 0.5 ml of Freund's incomplete adjuvant was used as the antigen.
The emulsion was given subcutaneously in a single dose of 1 ml divided equally (0.25 ml) to the four foot pads of male Hartly strain guinea pigs, each weighing 250 to 300 g. Starting two weeks after dosing with the aforementioned emulsion 0.1% egg albumin emulsified in physiological saline was given subcutaneously in equally divided (0.1 ml) doses of 0.4 ml once a week for 4 weeks to four sites on the backs of the test animals. Blood samples were collected from the carotid artery one week after the last injection, and centrifuged at 3000 r.p.m. at room temperature for 15 minutes. The antisera thus obtained were stored at -20° C.
(4) Anaphylactic bronchoconstriction in guinea-pigs sensitized with homologous antiserum
Male Hartly strain guinea-pigs were sensitized with an intravenous injection of 1 ml of homologous antiserum against egg albumin. And 48 hours later, the animals were immobilized with an intraperitoneal dose of 100 mg/kg of gallamine. The trachea was cannulated for artificial respiration which was performed with a miniature respiratory pump (3 ml/stroke, 60 strokes/minute). […]

[6] = test system: passive cutaneous anaphylaxis (P.C.A.); experiment: Antagonism to passive cutaneous anaphylaxis (P.C.A.) in rat sensitized with homologous reaginic antiserum; type: in vivo; settings: test compound given orally 2 hours and intravenously 5 minutes before antigen
Experimental: (a) Rat reaginic antiserum against egg albumin
One mg of egg albumin emulsified in 0.5 ml of B. pertussisdiphtheria mixed vaccine (Tanabe Seiyaku Company Ltd.) and 0.5 ml of Freund's incomplete adjuvant (Difco) was used as the antigen. The emulsion was given subcutaneously in a single dose of 1 ml divided equally (0.25 ml) to the four foot pads of male Sprague-Dawley JCL strain rats aged 6 weeks, each weighing 170-220 g. Blood samples were collected from the femoral artery 12 days after injection, and centrifuged at 3000 r.p.m. at 4° C. for 15 minutes. The antisera thus obtained were stored at -20° C.
(2) Antagonism to passive cutaneous anaphylaxis (P.C.A.) in rat sensitized with homologous reaginic antiserum
Ten male Sprague-Dawley-JCL strain rats, weighing 290-310 g were used for each dose. The rat reaginic antiserum against egg albumin was used at a dilution 1:4. The animals were sensitized with 0.1 ml of the antiserum injected intracutaneously on the depilated backs of the rats. […] It was further centrifuged at 2000 r.p.m. for 15 minutes and the quantity of the dye in the supernatant solution was determined by colorimetry at 620 mμ. […] The inhibitory effect of test compound was determined from the dye amounts measured in comparison with the control group and the treated group and the ED50 value was calculated according to Litchfield-Wilcoxon method.

Compound | ED50 [1] | Percentage inhibition of histamin ([2]; 1.0 × 10^-5 g/ml test compound) | Percentage inhibition of histamin ([2]; 1.6 × 10^-4 g/ml test compound) | Percentage inhibition of histamin ([2]; 4.0 × 10^-5 g/ml test compound) | LD50 at 168 h [3] | LD50 at 168 h [4] | ED50 [5] | Percentage inhibition of histamin ([2]; 8.0 × 10^-5 g/ml test compound) | ED50 [6]
O=C(O)c1cc(=O)c2c(OCC(O)COc3cccc4oc(C(=O)O)cc(=O)c34)cccc2o1 [Compound D, disodium chromoglycate, reference compound] | 105 mg/kg | 2% | 1% | 4% | – | – | – | – | –
O=C(Cn1c(=O)sc2ccc(Cl)cc21)N1CCN(CCO)CC1 [Compound B, 3-[4-(2-hydroxyethyl)-1-piperazinylcarbonylmethyl]-5-chloro-2-benzothiazolinone hydrochloride] | 28 mg/kg | – | – | – | – | – | – | – | –
O=C(Cn1c(=O)sc2ccc(Cl)cc21)N1CCC(O)CC1 [Compound C, 3-(4-hydroxypiperidino)carbonylmethyl-5-chloro-2-benzothiazolinone] | 32 mg/kg | – | – | – | – | – | – | – | –
O=C(Cn1c(=O)sc2ccc(Cl)cc21)N1CCNCC1 [Compound A, 3-(1-piperazinyl)carbonylmethyl-5-chloro-2-benzothiazolinone] | 9 mg/kg | 14% | 82% | 48% | 219 mg/kg | 734 mg/kg | 56 mg/kg | 59% | 50 mg/kg
